Here are results for eight compounds from patent publication US20240148745A1, “COMPOUNDS FOR USE IN PROGRESSIVE MULTIPLE SCLEROSIS” (FONDAZIONE CENTRO SAN RAFFAELE, priority 2021, published 2024).

SMILES strings stand for the structures.

Test [1] deals with mouse cortical and striatal neurons. Description: Morphological integrity evaluation, NMDA 20 μM. To be noted: 1 μM, 24 h pre-treatment, NMDA 20 μM 24 h. Type of test: cell-based. The procedure:
Morphological integrity evaluation. Mouse cortical and striatal neurons (14 DIV) cultured in MW96 plates were exposed to 1 uM to 60 uM concentrations of NMDA and relationship between the NMDA dose and fiber length was evaluated. […] Each of the compound was tested in quadruplicate. The fiber length was evaluated by MAP2 staining (please see the method described earlier).
42 compounds were screened to evaluate the morphological integrity of cortical and striatal neurons upon chronic (24 h) NMDA exposure at concentration of 20 μM with compounds pre-treatment (24 h) in preventive regimen (FIG. 17).

Test [2] relates to H9-derived human neural stem cells. Description: Neurotoxic or regenerative effect screening (CellTiter-Glo). It is filed as cell-based. To be noted: 10 μM, three independent screenings. The procedure:
H9-derived human neural stem cells (H9 hNSCs, Gibco) were cultured according to the manufacturer's instructions. Briefly, H9 hNSCs were expanded and subsequently differentiated in neurobasal medium, 2% B27, 1% Glutamax, and 1% penicillin/streptomycin, supplemented with 10 ng/ml BDNF (Peprotech), and 2 ng/ml recombinant human GDNF (Peprotech). After 7 days, 500 μM of db-cAMP (N6,2′-O-dibutyryladenosine 3′,5′-cyclic monophosphate, Sigma) was added.
The metabolic activity/viability of selected compounds (32 “Front Runners”+24 compounds from the “Short list”) was evaluated by CellTiter-Glo® Luminescent Cell Viability Assay. The primary screen of Front Runner List (32 compounds)+24 compounds from Short List) on H9-derived human neurons was performed at 10 μM concentration. The validation of hits from primary screen on H9-derived human neurons was performed at 10 μM concentration.
32 Front Runners were tested at 10 μM on H9-derived human neuronal cultures and viability was evaluated by CellTiter-Glo® Luminescent Cell Viability Assay.

The next test deals with rat primary OPC cultures. The test can be described thus: Differentiation of rat primary OPC into MBP+ OLs. Type of test: cell-based. To be noted: 96 h, 4 days of differentiation, read-out: MBP+ differentiation (MBP+/SOX10+ OLs plus compounds / plus basal medium). The essentials:
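Primary rat OPCs were differentiated for 4 days with compounds at […], in triplicate over 3 independent experiments. Cells were immunolabelled for CNPase, MBP and SOX10, and MBP+ oligodendrocytes were counted by imaging. Results are fold increase in MBP+/SOX10+ cells over basal medium; 9-cis-RA ([…]) was the positive control.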

Test [3] relates to primary murine spinal cord culture. Description: Myelinating cell cultures from primary murine spinal cord. Type of test: cell-based, mouse. To be noted: 1 μM. The procedure: Single cell suspensions are prepared from spinal cord of mouse embryos (E13) (adapted from Thomson, 2008) and 1.5×10^5 cells/well were plated into 96 well plates. Over time, these cultures mature and form axons, which later myelinate. Using spinal cord tissue facilitates the quantification of mature MBP+ oligodendrocytes and newly formed myelin by in-house high-content imaging system (Operetta High Content Imaging System, Perkin Elmer) with a 20× lens. From each well, 25 fields in a 5×5 matrix were scanned. Thirty-two “Front Runners” compounds were tested in replicates of five at 1 μM/DMSO, while T3, benzotropine and clemastine were used as positive controls, DMSO as negative/solvent control. Two experimental paradigms were applied: “Early treatment”: exposure to experimental agent from DIV7 to DIV14; “Late treatment”: exposure to experimental agent from DIV14-DIV21. On DIV21, cultures were fixed and stained (myelin: MBP, axons: NF200; nuclei: Hoechst). Imaging data were analysed using CellProfiler and in-house generated analysis pipeline.
Thirty-two “Front Runners” compounds were tested in replicates of five at 1 μM/DMSO, while T3, benztropine and clemastine were used as positive controls, DMSO as negative/solvent control. Two experimental paradigms were applied: “Early treatment”: exposure to experimental agent from DIV7 to DIV14; “Late treatment”: exposure to experimental agent from DIV14-DIV21. […] In “Late treatment” paradigm in myelin area evaluation were identified Vanoxerine, Roxadustat, Tamibarotene, Drinabant, Progesterone, Saracatinib. In quantification of myelinated axons were identified Vanoxerine, Drinabant, Roxadustat.

The test system of test [4] is iPSC-derived glutamatergic neurons. The test can be described thus: ROS (tBuOOH)-mediated neuroprotective assay on hNeu. Type of test: cell-based, human. The method, then: Neuroprotective experiments were performed using iPSC-derived glutamatergic neurons from 3 healthy controls cultured for 30-40 DIV. Cells were pre-treated for 24 h with […] of compounds, vehicle (DMSO) or 5 nM Mito-Q (mitoquinone) served as a positive control. On the next day cells were incubated for 2 h with 100 µM of tert-butyl peroxide (tBuOOH, Sigma), then the medium was replaced and the viability readout by CCK8 viability assay kit (Dojindo) was performed on the following day. The cell viability was expressed as normalized Z score and compared to tBuOOH-treated cells with nonparametric Kruskal-Wallis test with Dunn's multiple comparisons correction.
32 “Front runners” and 7 compounds from short list were tested on iPSC-derived neurons from three control lines in ROS-mediated assay to evaluate a neuroprotective potential of selected compounds. Three independent experiments were performed for CTR4 and CTR8, FIG. 20 (A, C), while two independent experiments were performed for CTR7, FIG. 20 (B).

The subject of test [5] is murine cortical neurons (14 DIV). Description: NMDA-mediated neuroprotective assay (CCK8 viability). The settings on record: 1 μM, 3 h pre-treatment, NMDA 8 μM 24 h, p<0.05. Type of test: cell-based, mouse. The method in brief: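 Primary murine cortical neurons pre-treated with 1 μM compound for 3 or 24 h, then exposed to 8 μM NMDA for 24 h. Viability read by CCK-8 and expressed relative to NMDA-only control; vehicle 0.02% DMSO.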

The mark [6] stands for this setting: control line CTR4, 1 μM, p<0.05.
[7] abbreviates: summary for all three control lines.

In the case of `CC(=O)N1CCN([C@H]2CCN(C(=O)N(C)[C@H](C)c3cc(C(F)(F)F)cc(C(F)(F)F)c3)[C@@H](c3ccc(F)cc3C)C2)CC1` [Casopitant], the “morphological integrity (neurite length) of cortical and striatal neurons” value in test [1] is “selected for confirmation”. For the same compound, in test [2], the “cumulative Z-scores of ATP production/viability” value is reported as “potential hits”. The fold induction at 1 µM with rat primary OPC cultures was above 1.6. In addition, the myelin area entry in test [3] (Early treatment DIV7 to DIV14) is “identified”. Moreover, in test [3] (Early treatment DIV7 to DIV14), the “quantification of myelinated axons” value is given as “identified”. The “protection from tBuOOH insult” value in test [4] (setting [6]) is listed as “protected from tBuOOH insult”; in test [4] (control line CTR7, p=0.07), “trend to significance”; in test [4] (setting [7]), “potential neuroprotective effect from tBuOOH-mediated insult”.

On to `NCCCC[C@H](NC(=O)[C@@H](Cc1cc(Br)c(O)c(Br)c1)NC(=O)N1CCC(N2Cc3ccccc3NC2=O)CC1)C(=O)N1CCN(c2ccncc2)CC1` [Olcegepant], for which, in test [1], the “morphological integrity (neurite length) of cortical and striatal neurons” value is “selected for confirmation”. The fold induction at 1 µM in the test with rat primary OPC cultures is above 1.6. Besides, in test [4] (setting [7]), the “protection from tBuOOH insult” value is recorded as “potential neuroprotective effect from tBuOOH-mediated insult”.

On to `O=C(NOC[C@H](O)CO)c1ccc(F)c(F)c1Nc1ccc(I)cc1F` [PD-0325901], for which, in test [2], the “cumulative Z-scores of ATP production/viability” value is “potential hits”. Further, in the test on rat primary OPC cultures, the fold induction at 1 µM is above 1.6.

In the case of `CC1(C)CCC(C)(C)c2cc(NC(=O)c3ccc(C(=O)O)cc3)ccc21` [Tamibarotene], the “neuroprotection of viability/metabolic activity against NMDA” value in test [5] was “hit compounds”. For the same compound, the fold induction at 1 µM in the test on rat primary OPC cultures is above 1.6. Besides, the myelin area result in test [3] (Early treatment DIV7 to DIV14) and in test [3] (Late treatment DIV14-DIV21) was “identified” throughout.

Regarding `O=C(c1ccc(CN2CCOCC2)cc1)N1CCN(C2CC2)CC1` [Bavisant], the fold induction at 1 µM with rat primary OPC cultures is above 1.6.

With `CC(=O)[C@H]1CC[C@H]2[C@@H]3CCC4=CC(=O)CC[C@]4(C)[C@H]3CC[C@]12C` [Progesterone], the “neuroprotection of viability/metabolic activity against NMDA” value in test [5] is recorded as “hit compounds”. For the same compound, the myelin area result in test [3] (Early treatment DIV7 to DIV14) and in test [3] (Late treatment DIV14-DIV21) was “identified” throughout.

Regarding `C[C@H](Nc1cc(-c2cnn(C)c2)cc(Nc2cnccn2)n1)c1ccc(F)cc1` [NS-018], the myelin area entry in test [3] (Early treatment DIV7 to DIV14) is listed as “identified”. In test [3] (Early treatment DIV7 to DIV14), the “quantification of myelinated axons” value is “identified”. The “protection from tBuOOH insult” value in test [4] (setting [6]) is recorded as “protected from tBuOOH insult”; in test [4] (control line CTR8, p<0.05) it was “potential neuroprotective compound from tBuOOH-mediated insult”; in test [4] (setting [7]), “potential neuroprotective effect from tBuOOH-mediated insult”.

For the compound `CCOC(=O)[C@@H](N)CCC(=O)N[C@@H](CSCc1ccccc1)C(=O)N[C@@H](C(=O)OCC)c1ccccc1.Cl` [Ezatiostat hydrochloride, Ezatiostat Hydrochloride], the “neuroprotection of viability/metabolic activity against NMDA” value in test [5] is on record as “hit compounds”. The “cumulative Z-scores of ATP production/viability” value in test [2] is recorded as “potential hits”. Also, in test [4] (setting [7]), the “protection from tBuOOH insult” value was “potential neuroprotective effect from tBuOOH-mediated insult”.
